Patent publication US20110166144A1, “Pyrimidotriazinediones and Pyrimidopyrimidinediones and Methods of Using the Same” (THE REGENTS OF THE UNIVERSITY OF MICHIGAN, priority 2008, published 2011)
Read-outs that look alike come from different tables or passages of the source.

Tests used:
β-catenin/TCF complex = test: cells; assay type: cell-based
[1] = test system: IEC18 Rat Epithelial Cells (IEC18-S33Y); conditions: 17-20 h with compound, WST-1
Method: Using the above assay system, IC50 and LD50 values were determined for the pyrimidotriazinedione compounds. IEC18-S33Y cells carrying a β-catenin firefly luciferase cassette and a constitutively active renilla luciferase cassette were seeded at 40,000 cells/well in 96-well tissue culture plates (BD Biosciences, Bedford, Mass.) in a total volume of 80 μL of tissue culture medium (Dulbecco's modified Eagle medium without Phenol-Red (Invitrogen, Carlsbad, Calif.) supplemented with 10% (v/v) fetal bovine serum (Hyclone, Logan, Utah)) and incubated for 24 h. […] Working solutions of the compounds were obtained by further diluting the stock solutions in tissue culture medium by at least 50-fold. Serial twofold dilutions of the working solutions of the compounds were added to the cells in a volume of 40 μL and the cells were incubated in the presence of the compounds for 17-20 h.
LD50 values of the pyrimidotriazinediones then were determined using a WST-1 colorimetric cell proliferation assay. A mixture containing 20 μL of medium and 10 μL of WST-1 reagent (available from Roche, Indianapolis, Ind.) was added to the cells and the cells were incubated for 1 h at 37° C., after which time absorption at 550 nm was measured using a microplate reader.

[2] = Pharmacokinetic properties in mice (plasma level by HPLC/MS); assay type: in vivo; conditions: 10 mg/kg, plasma 1 minute to 12 hours post-injection
Method: The pharmacokinetic properties of a substituted pyrimido[5,4-e][1,2,4]triazine-5,7(6H,8H)-dione of formula II (3-(4-(2-(Diethylamino)ethoxy)phenyl)-8-(3,4-difluorobenzyl)-6-methylpyrimido[5,4-e][1,2,4]triazine-5,7(6H,8H)-dione) in mice were determined by dosing a cohort of mice with 10 mg/kg compound. Blood was drawn from the mice at various time points (1 minute, 15 minutes, 30 minutes, 3 hours, 6 hours, and 12 hours) post-injection. The blood plasma was isolated from the drawn blood and the amount of compound present in the plasma was measured by HPLC with peak analysis by mass spectrometry.

[3] = Rattus norvegicus, IEC18-S33Y cells, 17-20 h with compound, β-catenin-dependent firefly luciferase with Renilla control, read-out: IC50

Row | melting point | SMILES | IC50 (β-catenin/TCF complex; [3]) [nM] | LD50 [1] [µM] | further results
1 | 220 to 223 °C | Cn1nc(-c2ccc([N+](=O)[O-])cc2)nc2c(=O)n(C)c(=O)nc1-2 | – | – | –
2 | 223 to 224 °C | Cn1nc(-c2cccc([N+](=O)[O-])c2)nc2c(=O)n(C)c(=O)nc1-2 | – | – | –
3 | 248 to 250 °C | Cn1c(=O)nc2[nH]nc(-c3ccccc3F)nc-2c1=O | – | – | –
4 | 202 to 205 °C | CCCn1c(=O)n(C)c(=O)c2nc(-c3ccc(Cl)cc3)nnc21 | – | – | –
5 | 320 °C (dec.) | Cc1ccc(Cn2c(=O)n(C)c(=O)c3nc(-c4ccccc4F)nnc32)cc1 | – | – | –
6 | 253 to 254 °C | Cn1c(=O)c2nc(-c3ccccc3)nnc2n(Cc2ccc(F)cc2)c1=O | – | – | –
7 | 251 to 254 °C | Cn1c(=O)c2nc(-c3ccc(Cl)cc3)nnc2n(Cc2ccccc2F)c1=O | – | – | –
8 | 225 to 227 °C (dec.) | Cn1c(=O)c2nc(-c3ccccc3)nnc2n(Cc2ccc(C(F)(F)F)cc2)c1=O | – | – | –
9 | 274 to 280 °C (dec.) | Cn1c(=O)c2nc(-c3ccccc3)nnc2n(Cc2ccc([N+](=O)[O-])cc2)c1=O | – | – | –
10 | 208 to 211 °C (dec.) | Cn1c(=O)nc2n(CCO)nc(-c3ccc(Cl)c(Cl)c3)nc-2c1=O | – | – | –
11 | 215 to 218 °C (dec.) | COc1ccc(-c2nc3c(=O)n(C)c(=O)nc-3n(CCO)n2)cc1OC | – | – | –
12 | – | Cn1nc(-c2ccccc2)[n+]([O-])c2c(=O)n(C)c(=O)nc1-2 | 490 ± 220 | 1.71 ± 46.77 | –
13 | – | Cn1nc(-c2ccc(Cl)cc2)[n+]([O-])c2c(=O)n(C)c(=O)nc1-2 | 700 ± 150 | 2.01 ± 2.58 | –
14 | – | Cc1nc2c(=O)n(C)c(=O)nc-2n(C)n1 [Compound 5b, 1,3,6-Trimethylpyrimido[5,4-e][1,2,4]triazine-5,7(1H,6H)-dione] | 1000 ± 190 | 2.02 ± 0.75 | –
15 | – | CCc1nc2c(=O)n(C)c(=O)nc-2n(C)n1 [Compound 5c, 3-Ethyl-1,6-dimethylpyrimido[5,4-e][1,2,4]triazine-5,7(1H,6H)-dione] | 1420 ± 250 | 2.94 ± 10 | –
16 | – | Cn1nc(-c2ccccc2)nc2c(=O)n(C)c(=O)nc1-2 [Compound 5d, 1,6-Dimethyl-3-phenylpyrimido[5,4-e][1,2,4]triazine-5,7(1H,6H)-dione] | 530 ± 100 | 1.39 ± 0.44 | –
17 | – | Cc1ccc(-c2nc3c(=O)n(C)c(=O)nc-3n(C)n2)cc1 [Compound 5e, 1,6-Dimethyl-3-(4-methylphenyl)pyrimido[5,4-e][1,2,4]triazine-5,7(1H,6H)-dione] | 680 ± 90 | 0.84 ± 0.25 | –
18 | – | Cn1nc(-c2ccc(F)cc2)nc2c(=O)n(C)c(=O)nc1-2 [Compound 5f, 3-(4-Fluorophenyl)-1,6-dimethylpyrimido[5,4-e][1,2,4]triazine-5,7(1H,6H)-dione] | 300 ± 70 | 1.10 ± 0.01 | –
19 | – | Cn1nc(-c2ccccc2F)nc2c(=O)n(C)c(=O)nc1-2 [Compound 5g, 3-(2-Fluorophenyl)-1,6-dimethylpyrimido[5,4-e][1,2,4]triazine-5,7(1H,6H)-dione] | 190 ± 14 | 0.71 ± 3.31 | –

Row | melting point | SMILES | IC50 (β-catenin/TCF complex; [3]) [nM] | LD50 [1] [µM] | further results
20 | – | Cn1nc(-c2ccc(Cl)cc2)nc2c(=O)n(C)c(=O)nc1-2 [Compound 5h, 3-(4-Chlorophenyl)-1,6-dimethylpyrimido[5,4-e][1,2,4]triazine-5,7(1H,6H)-dione] | 1050 ± 290 | 2.84 ± 0.80 | –
21 | – | Cn1nc(-c2cccc(Cl)c2)nc2c(=O)n(C)c(=O)nc1-2 [Compound 5i, 3-(3-Chlorophenyl)-1,6-dimethylpyrimido[5,4-e][1,2,4]triazine-5,7(1H,6H)-dione] | 5030 ± 1180 | 23.88 ± 5.17 | –
22 | – | Cn1nc(-c2ccc(Cl)c(Cl)c2)nc2c(=O)n(C)c(=O)nc1-2 [Compound 5j, 3-(3,4-Dichlorophenyl)-1,6-dimethylpyrimido[5,4-e][1,2,4]triazine-5,7(1H,6H)-dione] | – | 30.1 ± 17.54 | IC50 (β-catenin/TCF complex; Rattus norvegicus): 9320 ± 7440 nM
23 | – | CCN(CC)CCOc1ccc(-c2nc3c(=O)n(C)c(=O)nc-3n(C)n2)cc1 [Compound 5l, 3-(4-(2-(Diethylamino)ethoxy)phenyl)-1,6-dimethylpyrimido[5,4-e][1,2,4]triazine-5,7(1H,6H)-dione] | 16 ± 18 | 0.136 ± 1 | –
24 | – | Cc1ccc(-c2n[nH]c3nc(=O)n(C)c(=O)c-3n2)cc1 [Compound 6a, 6-Methyl-3-p-tolylpyrimido[5,4-e][1,2,4]triazine-5,7(1H,6H)-dione] | 21100 ± 14100 | >50 | –
25 | – | Cn1c(=O)c2nc(-c3ccccc3F)nnc2n(Cc2ccccc2)c1=O [Compound 7d, 8-Benzyl-3-(2-fluorophenyl)-6-methylpyrimido[5,4-e][1,2,4]triazine-5,7(6H,8H)-dione] | 3600 ± 2250 | – | –
26 | – | Cn1c(=O)c2nc(-c3ccc(F)cc3)nnc2n(Cc2ccc(C(C)(C)C)cc2)c1=O [Compound 7h, 8-(4-tert-Butylbenzyl)-3-(4-fluorophenyl)-6-methylpyrimido[5,4-e][1,2,4]triazine-5,7(6H,8H)-dione] | 330 ± 10 | – | –
27 | 230 to 234 °C (dec.) | COc1ccc(-c2nnc3c(n2)c(=O)n(C)c(=O)n3Cc2ccc(F)cc2)cc1 [Compound 7j, 8-(4-Fluorobenzyl)-3-(4-methoxyphenyl)-6-methylpyrimido[5,4-e][1,2,4]triazine-5,7(6H,8H)-dione] | – | – | –
28 | – | Cn1c(=O)nc2n(CCO)nc(-c3ccccc3)nc-2c1=O [Compound 8a, 1-(2-Hydroxyethyl)-6-methyl-3-phenylpyrimido[5,4-e][1,2,4]triazine-5,7(1H,6H)-dione] | 970 ± 220 | 2.09 ± 0.78 | –
29 | – | Cc1ccc(-c2nc3c(=O)n(C)c(=O)nc-3n(CCO)n2)cc1 [Compound 8b, 1-(2-Hydroxyethyl)-6-methyl-3-(4-methylphenyl)pyrimido[5,4-e][1,2,4]triazine-5,7(1H,6H)-dione] | 320 ± 230 | 2.55 ± 21.76 | –
30 | – | Cn1c(=O)nc2n(CCO)nc(-c3ccc(Cl)cc3)nc-2c1=O [Compound 8c, 3-(4-Chlorophenyl)-1-(2-hydroxyethyl)-6-methylpyrimido[5,4-e][1,2,4]triazine-5,7(1H,6H)-dione] | 4560 ± 8240 | 6.36 ± 21.76 | –
31 | – | COc1ccc(-c2nc3c(=O)n(C)c(=O)nc-3n(CCO)n2)cc1 [Compound 8e, 1-(2-Hydroxyethyl)-3-(4-methoxyphenyl)-6-methylpyrimido[5,4-e][1,2,4]triazine-5,7(1H,6H)-5,7-dione] | – | 8.39 ± 10.29 | IC50 (β-catenin/TCF complex; IEC18-S33Y cells, 17-20 h with compound, β-catenin-dependent firefly luciferase with Renilla control, read-out: IC50): 6070 ± 4910 nM
32 | – | Cn1c(=O)nc2n(CCO)nc(-c3ccc(OCCN4CCCC4)cc3)nc-2c1=O [Compound 8f, 1-(2-Hydroxyethyl)-6-methyl-3-(4-(2-(pyrrolidin-1-yl)ethoxy)phenyl)pyrimido[5,4-e][1,2,4]triazine-5,7(1H,6H)-dione] | 1340 ± 150 | 1.55 ± 0.22 | –
33 | 170 to 180 °C (dec.) | CN(C)c1ccc(-c2nc3c(=O)n(C)c(=O)nc-3n(CCO)n2)cc1 [Compound 8i, 3-(4-(Dimethylamino)phenyl)-1-(2-hydroxyethyl)-6-methylpyrimido[5,4-e][1,2,4]triazine-5,7(1H,6H)-dione] | – | – | –
34 | – | Cn1c(=O)nc2n(CCO)nc(-c3ccccn3)nc-2c1=O [Compound 8j, 1-(2-Hydroxyethyl)-6-methyl-3-(pyridin-2-yl)pyrimido[5,4-e]-[1,2,4]triazine-5,7(1H,6H)-dione] | 3810 ± 590 | 9.55 ± 0.001 | –
35 | – | CCN(CC)CCOc1ccc(-c2nnc3c(n2)c(=O)n(C)c(=O)n3Cc2cccc(F)c2)cc1 [Compound 10c, 3-(4-(2-(Diethylamino)ethoxy)phenyl)-8-(3-fluorobenzyl)-6-methylpyrimido[5,4-e][1,2,4]triazine-5,7(6H,8H)-dione] | 23400 ± 2830 | 21.49 ± 10.42 | –
36 | – | CCN(CC)CCOc1ccc(-c2nnc3c(n2)c(=O)n(C)c(=O)n3Cc2ccc(F)c(F)c2)cc1 [Compound 10g, 3-(4-(2-(Diethylamino)ethoxy)phenyl)-8-(3,4-difluorobenzyl)-6-methylpyrimido[5,4-e][1,2,4]triazine-5,7(6H,8H)-dione] | 700 ± 130 | 2.57 ± 10.99 | pharmacokinetic properties as assessed by peak plasma level and half-life [2]: favorable pharmacokinetic properties
37 | 240 to 247 °C (dec.) | Cn1nc(-c2ccccc2F)nc2c(=O)[nH]c(=O)nc1-2 [Compound 17a, 3-(2-Fluorophenyl)-1-methylpyrimido[5,4-e][1,2,4]triazine-5,7(1H,6H)-dione] | – | – | –
38 | – | Cn1nc(-c2ccccc2F)nc2c(=O)n(Cc3ccc(F)c(F)c3)c(=O)nc1-2 [Compound 17e, 6-(3,4-Difluorobenzyl)-3-(2-fluorophenyl)-1-methylpyrimido[5,4-e][1,2,4]triazine-5,7(1H,6H)-dione] | 110 ± 60 | 0.48 ± 0.10 | inhibitory activity of β-catenin-mediated transcription (in words) (β-catenin/TCF complex; IEC18-S33Y cells): antagonized β-catenin-mediated transcription
